Patent publication US10584159B2, “Renilla based biosensors for monitoring biomolecule localization and trafficking in cells” (The Royal Institution for the Advancement of …, priority 2014, dated 2020)

Tests used:
AT1R [1] = biological target: T1, AT1R (Homo sapiens, UniProt P30556); test: β-arrestin2 targeting to endosomes BRET (AT1R/βarr2-RlucII/rGFP-endofinFYVE); type: cell-based
T1 construct: expressed in transfected cells; host or cells: HEK293SL
T1 sequence (P30556 1-359): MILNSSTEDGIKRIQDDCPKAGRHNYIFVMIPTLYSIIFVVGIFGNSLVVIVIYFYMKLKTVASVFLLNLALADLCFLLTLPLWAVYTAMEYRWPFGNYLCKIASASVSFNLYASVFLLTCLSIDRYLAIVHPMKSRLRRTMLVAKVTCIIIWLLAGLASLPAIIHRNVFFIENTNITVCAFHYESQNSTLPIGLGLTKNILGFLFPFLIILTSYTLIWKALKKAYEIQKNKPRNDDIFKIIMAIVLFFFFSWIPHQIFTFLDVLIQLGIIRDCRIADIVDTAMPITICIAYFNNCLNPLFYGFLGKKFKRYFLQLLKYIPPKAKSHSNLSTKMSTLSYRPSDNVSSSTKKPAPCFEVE
Procedure: (§1) BRET measurements for FIGS. 1B to 9D, 25D to 25F. The following day of transfection, cells were detached and replated onto poly-ornithine coated white 96-well plate at a density of 25,000 cells per well. The next day, cells were washed once with pre-warmed Tyrode's buffer (140 mM NaCl, 2.7 mM KCl, 1 mM CaCl2, 12 mM NaHCO3, 5.6 mM D-glucose, 0.5 mM MgCl2, 0.37 mM NaH2PO4, 25 mM HEPES, pH 7.4), and then stimulated with either various concentrations of ligands in Tyrode's buffer for the indicated time, or single concentration of ligands for various times at 37° C. For recycling experiment, after stimulating the cells with the ligands for 30 min at 37° C., they were washed either three times with ice-cold Tyrode's buffer or once with Tyrode's buffer/three times with acid (50 mM sodium citrate, pH 4.0)/two times with Tyrode's buffer. All the washing steps were performed on ice. Cells were then further incubated with Tyrode's buffer at 37° C. in a water bath for 45 min. The cell-permeable substrate, coelenterazine 400a was added at a final concentration of 5 μM in Tyrode's buffer 3-4 min before BRET measurements. Measurements were performed by using Synergy2 (BioTek®) microplate reader with a filter set of 410±80 nm and 515±30 nm for detecting the RlucII Renilla luciferase (donor) and GFP10 or rGFP (acceptor) light emissions, respectively. The BRET signal was determined by calculating the ratio of the light intensity emitted by the GFP10 or rGFP over the light intensity emitted by the RlucII. All the BRET measurements were performed in triplicate at 37° C.

AT1R [2] = biological target: T1, AT1R; test: PKN-based RhoA activation BRET assay (PKN-crib-RlucII/rGFP-CAAX) with AT1R; type: cell-based; conditions: 100 nM Ubo-Qic 30 min, ligand 4 min
Procedure: as §1, with “Cells were then further incubated with Tyrode's buffer at 37° C. in a water bath for 45 min.” left out, “Measurements were performed by using Synergy2 (BioTek®) microplate reader with a filter set of 410±80 nm and 515±30 nm for detecting the RlucII Renilla luciferase (donor) and GFP10 or rGFP (acceptor) light emissions, respectively.” left out
PKN-based RhoA activation assay. For FIGS. 25B-D, HEK293SL cells were grown in DMEM supplemented with 6% fetal bovine serum (FBS) and 20 μg/ml gentamycin, at 37° C. Cells were seeded at a density of 7.5×10^5 cells per 100 mm dishes and were transiently transfected the next day with constructs encoding AT1R (3 μg) along with PKN-crib-RlucII (90 ng) and rGFP-CAAX (480 ng) using calcium phosphate method as described previously. After 24 h, cells were detached and seeded onto poly-ornithine-coated 96-well white plates at a density of 25 000 cells per well in media. The next day, cells were washed once with Tyrode's buffer and left in 80 μl of Tyrode's buffer at 37° C. When indicated, cells were treated with Ubo-Qic 100 nM for 30 min or C3 toxin for 3 μg/ml (in FIG. 25I), 4 hours at 37° C. Cell stimulation and BRET measurements were done at RT. BRET signals were monitored by addition of Coel-400a to a final concentration of 5 μM using a Synergy2 (BioTek®) microplate reader. […] For FIG. 25B, a transfection mix of 200 ng of TPαR, 20 ng PKN-RlucII, 600 ng CAAX-rGFP, complemented to 2 μg with ssDNA and PEI at a ratio of PEI:DNA of 3:1, is added to 3 ml of Hek293SL (350 000 cells/ml). Cells were seeded on poly-D-lysine pretreated plates. […] Cells were stimulated for 2 min with the indicated doses of U46619. […] For FIGS. 25I and J, a transfection mix of 200 ng of TPαR, 20 ng PKN-RlucII, 600 ng CAAX-rGFP, complemented to 2 μg with ssDNA and PEI at a ratio of PEI:DNA of 3:1, is added to 3 ml of Hek293SL (350,000 cells/ml). Cells were seeded on poly-D-lysine pretreated plates. 24 h post-transfection, the Rho inhibitor (CT04; Cytoskeleton, Inc) was added when indicated, overnight at final concentration 2 μg/ml. 48 h post-transfection, cells were washed and preincubated in Tyrode +1 mM CaCl2 at 37° C. for 60 min then treated, as indicated, with 100 nM of U46619 or 1 μg/ml of Rho activator II (CN03; Cytoskeleton, Inc) for 1 min at 37° C. […] BRET was measured at 37° C., using a Tristar Microplate Reader (Berthold Technologies).

AT1R [3] = biological target: T2, AT1R (Homo sapiens, UniProt P30556); test: AT1R trafficking to endosomes BRET (AT1R-RlucII/rGFP-endofinFYVE); type: cell-based; set-up: expressed in transfected cells; host or cells: HEK293SL (HEK293 for the screen)
T2 sequence (P30556 with tags, fused parts or gaps): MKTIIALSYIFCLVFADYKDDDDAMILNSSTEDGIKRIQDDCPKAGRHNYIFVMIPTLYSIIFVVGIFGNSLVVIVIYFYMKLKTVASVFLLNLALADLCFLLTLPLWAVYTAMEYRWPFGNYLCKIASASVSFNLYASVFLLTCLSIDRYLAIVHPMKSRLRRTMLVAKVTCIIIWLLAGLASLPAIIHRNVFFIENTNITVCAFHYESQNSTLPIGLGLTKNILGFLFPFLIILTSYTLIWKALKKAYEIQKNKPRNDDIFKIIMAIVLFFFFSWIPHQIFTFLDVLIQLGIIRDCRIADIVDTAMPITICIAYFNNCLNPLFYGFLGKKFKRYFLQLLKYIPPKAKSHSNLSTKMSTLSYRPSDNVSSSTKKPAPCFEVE
Procedure: as §1, with “Cells were then further incubated with Tyrode's buffer at 37° C. in a water bath for 45 min.” left out, “Measurements were performed by using Synergy2 (BioTek®) microplate reader with a filter set of 410±80 nm and 515±30 nm for detecting the RlucII Renilla luciferase (donor) and GFP10 or rGFP (acceptor) light emissions, respectively.” left out
(§2) Data Analysis. Estimation of the t1/2 and the EC50 values for ligand-mediated endocytosis were calculated using the GraphPad® Prism curve fitting program The curves presented throughout this study, representing the best fits, and were generated using this GraphPad® Prism program as well.

AT1R [4] = biological target: T2, AT1R; test: AT1R sorting to rab4 vesicles BRET (AT1R-RlucII/rGFP-rab4); type: cell-based; set-up: expressed in transfected cells; host or cells: HEK293SL (HEK293 for the screen); conditions: 100 nM AngII, 100 nM SI, 1 μM DVG
Procedure: as §1, with “Cells were then further incubated with Tyrode's buffer at 37° C. in a water bath for 45 min.” left out, “Measurements were performed by using Synergy2 (BioTek®) microplate reader with a filter set of 410±80 nm and 515±30 nm for detecting the RlucII Renilla luciferase (donor) and GFP10 or rGFP (acceptor) light emissions, respectively.” left out

[5] = tested on: V2R mutants (Y128S and W164S); test: BRET pharmacological chaperone rescue assay (rGFP-CAAX), V2R mutants; type: cell-based, human; conditions: 10 μM, 16 h, BRET1
Procedure: BRET assay for evaluation of PC rescue of cell surface expression and functionality (sequestration assay). In FIGS. 12A to 18E, Hek293 cells were transiently transfected using PEI as described in this section. The DNA transfected per well of a 96-well plate is as follow: in FIGS. 12A and 12B, with 2.4 ng of hMC4R-RlucII encoding construct and an increasing quantity of rGFP-CAAX (Kras) up to 9.6 ng for FIGS. 12A and for 12B, rGFP-PB up to 9.6 ng; in FIGS. 13A to 13C with 0.6, 1.2 or 2.4 ng of hMC4R-RlucII and 4.8 ng of rGFP-CAAX (Kras); in FIG. 13D with 2.4 ng of polycistronic rGFP-CAAX(Kras)/MC4R-RlucII construct; in FIG. 13E with 1.2 ng of hV2R-RlucII and 4.8 ng of rGFP-CAAX (Kras); in FIGS. 14A to 16B with 2.4 ng of hMC4R-RlucII and 7.2 ng of rGFP-CAAX (Kras); Hek293 cells stably expressing rGFP-CAAX(Kras) were transfected with 0.6, 1.2 or 2.4 ng of hMC4R-RlucII; in FIG. 17A or 0.6, 1.2 or 2.4 ng of hV2R_Y128S-RlucII; in FIG. 17B; in FIGS. 18A and 18B with 0.6, 1.2 or 2.4 ng of hERG-RlucII and 4.8 ng of rGFP-CAAX (Kras); and in FIGS. 18C-18E with 0.6 ng of hERG-RlucII and 7.2 ng of rGFP-CAAX (Kras). […] For the BRET assay, cells were washed once with PBS and left in Tyrode's buffer. […] BRET values were determined by calculating the ratio of the light emitted by the acceptor over the light emitted by the RlucII.

AT1R [6] = biological target: T2, AT1R; test: AT1R endocytosis BRET at plasma membrane (AT1R-RlucII/lyn-rGFP); type: cell-based; set-up: signal peptide-Flag-human AT1R (spFlag-AT1R); signal peptide (N); expressed in transfected cells; host or cells: HEK293SL (HEK293 for the screen); conditions: 0.45 M sucrose 20 min
Procedure: as §1, with “Cells were then further incubated with Tyrode's buffer at 37° C. in a water bath for 45 min.” left out, “Measurements were performed by using Synergy2 (BioTek®) microplate reader with a filter set of 410±80 nm and 515±30 nm for detecting the RlucII Renilla luciferase (donor) and GFP10 or rGFP (acceptor) light emissions, respectively.” left out
as §2

For `CC[C@H](C)[C@H](NC(=O)[C@@H]1CCCN1C(=O)[C@H](Cc1c[nH]cn1)NC(=O)[C@@H](NC(=O)[C@H](Cc1ccc(O)cc1)NC(=O)[C@@H](NC(=O)[C@H](CCCNC(=N)N)NC(=O)CNC)C(C)C)[C@@H](C)CC)C(=O)O` [SI, [Sar^1, IIe^8]-AngII], the “β-arrestin2 trafficking to endosomes with receptors, compared to AngII” value (AT1R [1]; 40 min) was “weakly promoted”, the “impact of Gq inhibition on ligand-mediated Rho activation” value (“impact of Gq inhibition” for short) (AT1R [2]) was “reduced efficacy and a rightward-shifted potency” and the “time to maximal AT1R internalization into endosomes” value (AT1R [3]; 100 nM SI or 1 μM DVG) was 20 min. The “less efficacious than AngII at promoting AT1R concentration in early endosomes” value (AT1R [3]; 100 nM SI or 1 μM DVG vs 100 nM AngII) was 20%, the “receptor accumulation in endosomes, compared to AngII” value (AT1R [3]; 40 min) was “promoted less receptor accumulation in endosomes” and the “time at which BRET signal plateaued” value (AT1R [4]) was 10 min.
`CCOc1ccc2c(c1)C1(CCC(OCCN3CCOCC3)CC1)C(=O)N2S(=O)(=O)c1ccc(C(=O)NC(C)(C)C)cc1OC` (centres unmarked) [SR121463] was tested, and the “PC-mediated rescue of cell surface expression” value [5] was “PC-mediated rescue”.
In the case of `CNCC(=O)N[C@@H](CCCN=C(N)N)C(=O)N[C@H](C(=O)N[C@@H](Cc1ccc(O)cc1)C(=O)N[C@H](C(=O)N[C@@H](Cc1cnc[nH]1)C(=O)N1CCC[C@H]1C(=O)N[C@@H](C)C(=O)O)C(C)C)C(C)C` [Saralasin], the “impact of Gq inhibition” value (AT1R [2]) was “did not affect”.
For `CC[C@H](C)[C@H](NC(=O)[C@H](Cc1ccc(O)cc1)NC(=O)[C@@H](NC(=O)[C@H](CCCNC(=N)N)NC(=O)CNC)C(C)C)C(=O)N[C@@H](Cc1cnc[nH]1)C(=O)N1CCC[C@H]1C(=O)N[C@H](C)C(=O)O` [TRV, [Sar1-D-Ala8] AngII], the “impact of Gq inhibition” value (AT1R [2]) was “did not affect”.
In the case of `CO/C1=C\C(C)=C\[C@@H](C)[C@@H](O)[C@@H](C)C/C(C)=C/C=C/[C@H](OC)[C@@H]([C@@H](C)[C@@H](O)[C@H](C)[C@@]2(O)C[C@@H](O)[C@H](C)[C@@H](C(C)C)O2)OC1=O` [bafilomycin A], the “effect on agonist-mediated accumulation of AT1R in endosomes” value (AT1R [3]; AngII 40 min) was “increased”.
For `OC[C@H]1O[C@@](CO)(O[C@H]2O[C@H](CO)[C@@H](O)[C@H](O)[C@H]2O)[C@@H](O)[C@@H]1O` [sucrose], the “effect on AngII-induced BRET response in the endosomes (β-arrestin2)” value (AT1R [1]; 0.45 M sucrose 20 min) was “efficiently blocked”, the “effect on AngII-induced BRET response in the endosomes (receptor)” value (AT1R [3]; 0.45 M sucrose 20 min) was “efficiently blocked” and the “effect on AngII-induced BRET response at the plasma membrane” value (AT1R [6]) was “efficiently blocked”.
With [Sar1-Val5-D-Phe8] AngII [SVdF] the “impact of Gq inhibition” value (AT1R [2]) was “reduced efficacy and a rightward-shifted potency”.
